The source made the active and inactive calls. The calls are words filed in the database; no cut-off is given here.
Tests used:
[1] = molecular target: T1, Retinaldehyde dehydrogenase 3 (Homo sapiens) (UniProt P47895); experiment: Activation of recombinant human ALDH1A3 using propionaldehyde as substrate at 100 uM preincubated for 2 mins with NAD+ followed by substrate addition by UV-Vis spectrophotometric analysis
T1 sequence (whole entry): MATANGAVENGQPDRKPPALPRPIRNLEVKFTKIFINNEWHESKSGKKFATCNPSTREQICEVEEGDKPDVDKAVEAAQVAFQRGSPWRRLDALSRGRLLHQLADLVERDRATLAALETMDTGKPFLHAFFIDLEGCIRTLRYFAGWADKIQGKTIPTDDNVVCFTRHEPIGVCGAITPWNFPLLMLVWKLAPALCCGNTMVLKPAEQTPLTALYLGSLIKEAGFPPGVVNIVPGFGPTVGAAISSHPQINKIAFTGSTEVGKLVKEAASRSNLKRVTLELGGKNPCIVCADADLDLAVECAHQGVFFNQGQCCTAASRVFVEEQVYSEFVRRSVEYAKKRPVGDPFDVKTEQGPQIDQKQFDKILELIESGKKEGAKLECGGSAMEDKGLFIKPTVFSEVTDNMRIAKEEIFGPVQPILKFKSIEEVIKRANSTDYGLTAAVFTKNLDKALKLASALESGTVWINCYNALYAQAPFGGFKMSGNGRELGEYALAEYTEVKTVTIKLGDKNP

[2] = molecular target: T2, Aldehyde dehydrogenase, mitochondrial (Homo sapiens) (UniProt P05091); experiment: Activation of recombinant human ALDH2 using propionaldehyde as substrate at 20 uM preincubated for 2 mins with NAD+ followed by substrate addition by UV-Vis spectrophotometric analysis
T2 sequence (whole entry): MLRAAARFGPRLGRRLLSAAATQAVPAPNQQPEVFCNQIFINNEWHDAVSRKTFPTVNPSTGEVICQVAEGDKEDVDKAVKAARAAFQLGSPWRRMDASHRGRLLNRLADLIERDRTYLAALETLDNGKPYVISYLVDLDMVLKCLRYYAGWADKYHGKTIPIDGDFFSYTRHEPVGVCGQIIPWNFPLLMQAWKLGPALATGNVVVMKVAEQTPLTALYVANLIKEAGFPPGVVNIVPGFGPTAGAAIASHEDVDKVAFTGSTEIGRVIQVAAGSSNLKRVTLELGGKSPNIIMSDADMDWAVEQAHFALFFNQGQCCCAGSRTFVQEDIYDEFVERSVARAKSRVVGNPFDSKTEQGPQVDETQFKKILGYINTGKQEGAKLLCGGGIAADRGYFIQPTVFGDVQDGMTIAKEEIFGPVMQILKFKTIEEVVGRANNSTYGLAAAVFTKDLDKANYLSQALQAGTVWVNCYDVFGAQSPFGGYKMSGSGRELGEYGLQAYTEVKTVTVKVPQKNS

[3] = molecular target: T3, Aldehyde dehydrogenase 1A1 (Homo sapiens) (UniProt P00352); experiment: Inhibition of recombinant human ALDH1A1 using propionaldehyde as substrate at 100 uM preincubated for 2 mins with NAD+ followed by substrate addition by UV-Vis spectrophotometric analysis relative to control
T3 sequence (whole entry): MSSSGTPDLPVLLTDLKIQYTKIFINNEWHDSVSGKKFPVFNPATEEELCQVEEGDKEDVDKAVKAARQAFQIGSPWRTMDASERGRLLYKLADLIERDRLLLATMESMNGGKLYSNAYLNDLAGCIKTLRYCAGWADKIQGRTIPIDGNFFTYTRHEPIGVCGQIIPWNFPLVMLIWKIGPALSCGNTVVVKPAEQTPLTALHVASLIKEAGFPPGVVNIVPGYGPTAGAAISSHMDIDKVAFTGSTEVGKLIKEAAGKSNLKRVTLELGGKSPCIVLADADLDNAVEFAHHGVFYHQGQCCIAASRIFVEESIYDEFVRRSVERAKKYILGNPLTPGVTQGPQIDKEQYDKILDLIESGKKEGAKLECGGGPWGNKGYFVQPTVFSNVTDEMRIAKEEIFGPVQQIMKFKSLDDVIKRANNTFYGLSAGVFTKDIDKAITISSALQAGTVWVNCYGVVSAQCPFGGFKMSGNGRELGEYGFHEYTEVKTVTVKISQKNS

[4] = molecular target: T4, Aldehyde dehydrogenase 1A1 (Homo sapiens, UniProt P00352); experiment: Inhibition of recombinant human ALDH1A1 using propionaldehyde as substrate preincubated for 2 mins with NAD+ followed by substrate addition by UV-Vis spectrophotometric analysis
T4 sequence (P00352 whole entry): T3 sequence (whole entry)

[5] = molecular target: T2, Aldehyde dehydrogenase, mitochondrial (Homo sapiens); experiment: Inhibition of recombinant human ALDH2 using propionaldehyde as substrate at 100 uM preincubated for 2 mins with NAD+ followed by substrate addition by UV-Vis spectrophotometric analysis
[6] = molecular target: T5, Retinal dehydrogenase 2 (Homo sapiens) (UniProt O94788); experiment: Inhibition of recombinant human ALDH1A2 using propionaldehyde as substrate at 100 uM preincubated for 2 mins with NAD+ followed by substrate addition by UV-Vis spectrophotometric analysis
T5 sequence (whole entry): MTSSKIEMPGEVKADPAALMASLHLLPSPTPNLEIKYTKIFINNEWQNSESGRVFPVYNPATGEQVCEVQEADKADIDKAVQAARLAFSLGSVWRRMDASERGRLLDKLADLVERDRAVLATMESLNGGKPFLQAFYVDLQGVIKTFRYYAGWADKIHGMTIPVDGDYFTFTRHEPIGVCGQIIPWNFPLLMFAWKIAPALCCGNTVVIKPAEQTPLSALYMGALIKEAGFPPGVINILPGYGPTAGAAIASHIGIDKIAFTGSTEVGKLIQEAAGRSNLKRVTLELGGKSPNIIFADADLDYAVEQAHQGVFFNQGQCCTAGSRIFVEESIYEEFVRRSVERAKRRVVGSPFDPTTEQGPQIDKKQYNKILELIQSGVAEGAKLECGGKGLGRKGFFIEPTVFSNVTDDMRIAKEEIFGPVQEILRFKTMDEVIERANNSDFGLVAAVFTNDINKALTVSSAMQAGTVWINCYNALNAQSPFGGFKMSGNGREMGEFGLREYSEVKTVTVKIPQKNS

[7] = molecular target: T1, Retinaldehyde dehydrogenase 3 (Homo sapiens); experiment: Inhibition of recombinant human ALDH1A3 using propionaldehyde as substrate at 100 uM preincubated for 2 mins with NAD+ followed by substrate addition by UV-Vis spectrophotometric analysis

Row | SMILES | Activity [1] | Activity [2] [%] | Imax [3] [%] | IC50 [4] [µM] | inhibition [5] | inhibition [6] | inhibition [7]
1 | CC(C)CCn1c(CN(C)Cc2ccccc2)nc2c1c(=O)n(C)c(=O)n2C | Active | < 10 | < 70 | 3.4 | – | – | –
2 | CCCCn1c(Oc2ccc(C(=O)OC)cc2)nc2c1c(=O)n(C)c(=O)n2C | Active | < 10 | < 70 | 5.2 | inactive | – | –
3 | Cn1c(=O)c2c(nc(N3CCOCC3)n2Cc2ccccc2F)n(C)c1=O | Active | < 10 | – | > 20 | inactive | – | –
4 | CCCCn1c(CN2CCN(c3cccc(Cl)c3)CC2)nc2c1c(=O)n(C)c(=O)n2C | – | < 10 | – | > 20 | – | – | –
5 | Cn1c(=O)c2c(nc(SCC(N)=O)n2Cc2ccccc2F)n(C)c1=O | Active | < 10 | < 70 | 14 | inactive | inactive | –
6 | CCCCn1c(CN2CCN(c3ccc(OC)cc3)CC2)nc2c1c(=O)n(C)c(=O)n2C | – | < 10 | – | > 20 | inactive | inactive | –
7 | Cn1c(=O)c2c(nc(N3CCN(Cc4ccccc4)CC3)n2Cc2cccc(Cl)c2)n(C)c1=O | Active | < 10 | – | > 20 | inactive | – | –
8 | Cn1c(=O)c2c(nc(CN3CCC(C(N)=O)CC3)n2CCCc2ccccc2)n(C)c1=O | – | < 10 | – | – | – | inactive | inactive
9 | CC(C)CCn1c(CN2CCN(C(=O)c3ccco3)CC2)nc2c1c(=O)n(C)c(=O)n2C | Active | < 10 | – | – | inactive | – | –
10 | CCN1CCN(Cc2nc3c(c(=O)n(C)c(=O)n3C)n2CC(=O)c2ccccc2)CC1 | – | < 10 | – | – | inactive | inactive | inactive
11 | CC(C)CCn1c(CN2CCOCC2)nc2c1c(=O)n(C)c(=O)n2C | – | < 10 | – | – | – | inactive | inactive

Source: ChEMBL document CHEMBL3414499, “Characterization of two distinct structural classes of selective aldehyde dehydrogenase 1A1 inhibitors” (J Med Chem, 2015)
